In patent US11111245B2, “Derivatives of N-cycloalkyl/heterocycloalkyl-4-(imidazo[1,2-a]pyridine)pyrimidin-2-amine as therapeutic agents” (Aucentra Therapeutics Pty Ltd, priority 2017, dated 2021):

Key:
leukemia cell lines = experiment: Resazurin cell viability assay on leukemia cell lines (72 h growth inhibition, GI50); assay type: cell-based; conditions: Homo sapiens, MV4-11 cells
Protocol: Compounds from Example 1 were subjected to a standard MTT (3-(4,5-dimethylthiazol-2-yl)-2,5-diphenyltetrazolium bromide) and resazurin assays on solid tumour cell lines and leukemia cell lines, respectively, as previously reported (Wang S et al., J Med Chem 47:1662-1675, 2004 and Diab S. et al. CheMedChem 9:962-972, 2014). Compound concentrations required to inhibit 50% of cell growth (GI50) were calculated using non-linear regression analysis.

CDK9/T1 = CDK9/T1 (Homo sapiens, UniProt P50750); experiment: ADP Glo Kinase assay CDK9/T1; assay type: biochemical; conditions: CDK9T1; read-out: CDK inhibition, Ki (μM) CDK9T1
Protocol: (§1) Eurofins Pharma Discovery or Reaction Biology Corporation Kinase Profiler services were used to measure inhibition of CDKs and other kinases by radiometric assay. Inhibition of CDK4/D1, CDK6/D3 and CDK9/T1 were also determined in-house using ADP Glo Kinase assays (Promega Corporation, Madison, USA). Briefly, the kinase reaction for CDK4/D1 and CDK6/D3 was performed with kinase reaction buffer ([…] Tris base pH 7.5, 20 mM MgCl2, 0.4 mM DTT), 0.1 mg/ml BSA and RB-CTF substrate (retinoblastoma protein 1 C-terminal fraction). For CDK9/CyclinT1, the kinase reaction was performed with standard assay buffer and Kinase Dilution Buffer and RBER-IRStide substrate. Serial dilutions of 1:3 were prepared for test compounds for 10 concentrations (from 10 μM to 0.5 nM). The kinase reactions were started by addition of ATP, incubated for 40 min at 37° C. and then stopped by adding 10 μL of ADP Glo reagent. After incubation at room temperature in the dark for 40 min, 20 μL of kinase detection reagent was added per well and incubated for 40 min. Luminescence was measured using an EnVision Multilabel plate reader (PerkinElmer, Buckinghamshire, UK). Positive and negative controls were performed in the presence and absence of CDK kinases, respectively. Half-maximal inhibition (IC50) values were calculated using a 4-parameter logistic non-linear regression model with Graphpad prism (Version 6.0). Apparent inhibition constants (Ki) values were calculated from Km (ATP) and IC50 values for the respective kinases.

CDK4/D1 = CDK4/D1 (Homo sapiens, UniProt P11802); experiment: ADP Glo Kinase assay CDK4/D1; assay type: biochemical; conditions: CDK4D1; compound at 10 μM; read-out: residual activity (%) at 10 μM CDK4D1
Protocol: as §1

CDKs and other kinases [1] = molecular target: T1, CDKs and other kinases (Homo sapiens, UniProt P50613); experiment: Radiometric kinase assay (Eurofins Pharma Discovery or Reaction Biology Corporation Kinase Profiler); assay type: biochemical; conditions: CDK7H; for Ki: read-out: CDK inhibition, Ki (μM) CDK7H; for remaining activity at 10 µM: compound at 10 μM, read-out: residual activity (%) at 10 μM CDK7H
T1 construct: other: CDK7H; residual activity (%) at 10 μM CDK7H; compound at 10 μM
Protocol: as §1

CDKs and other kinases [2] = molecular target: T2, CDKs and other kinases (Homo sapiens, UniProt P06493); experiment: as above; assay type: biochemical; conditions: CDK1B; for remaining activity at 10 µM: compound at 10 μM, read-out: residual activity (%) at 10 μM CDK1B; for Ki: read-out: CDK inhibition, Ki (μM) CDK1B
T2 construct: other: CDK1B; residual activity (%) at 10 μM CDK1B; compound at 10 μM
Protocol: as §1

CDKs and other kinases [3] = molecular target: T3, CDKs and other kinases (Homo sapiens, UniProt P24941); experiment: as above; assay type: biochemical; conditions: CDK2A; for remaining activity at 10 µM: compound at 10 μM, read-out: residual activity (%) at 10 μM CDK2A; for Ki: read-out: CDK inhibition, Ki (μM) CDK2A
T3 construct: other: CDK2A; residual activity (%) at 10 μM CDK2A; compound at 10 μM
Protocol: as §1

T2 sequence (P06493 whole entry): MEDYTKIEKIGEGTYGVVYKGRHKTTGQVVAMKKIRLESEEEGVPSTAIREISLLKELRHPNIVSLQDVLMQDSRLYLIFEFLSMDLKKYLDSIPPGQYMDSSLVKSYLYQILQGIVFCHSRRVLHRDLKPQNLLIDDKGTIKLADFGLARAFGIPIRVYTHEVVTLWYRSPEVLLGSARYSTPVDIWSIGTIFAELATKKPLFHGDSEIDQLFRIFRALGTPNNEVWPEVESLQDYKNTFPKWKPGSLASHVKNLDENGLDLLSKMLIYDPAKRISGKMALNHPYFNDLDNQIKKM
T1 sequence (P50613 whole entry): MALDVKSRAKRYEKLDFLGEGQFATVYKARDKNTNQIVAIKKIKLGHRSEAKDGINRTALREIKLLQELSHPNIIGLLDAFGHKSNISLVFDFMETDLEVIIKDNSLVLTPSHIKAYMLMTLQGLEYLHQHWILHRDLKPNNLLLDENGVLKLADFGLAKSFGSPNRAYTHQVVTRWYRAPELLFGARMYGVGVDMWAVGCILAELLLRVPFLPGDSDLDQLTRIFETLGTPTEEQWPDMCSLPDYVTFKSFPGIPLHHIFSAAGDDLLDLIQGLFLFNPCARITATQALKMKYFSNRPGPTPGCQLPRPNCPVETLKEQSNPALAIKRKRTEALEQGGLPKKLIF
CDK4/D1, sequence (P11802 whole entry): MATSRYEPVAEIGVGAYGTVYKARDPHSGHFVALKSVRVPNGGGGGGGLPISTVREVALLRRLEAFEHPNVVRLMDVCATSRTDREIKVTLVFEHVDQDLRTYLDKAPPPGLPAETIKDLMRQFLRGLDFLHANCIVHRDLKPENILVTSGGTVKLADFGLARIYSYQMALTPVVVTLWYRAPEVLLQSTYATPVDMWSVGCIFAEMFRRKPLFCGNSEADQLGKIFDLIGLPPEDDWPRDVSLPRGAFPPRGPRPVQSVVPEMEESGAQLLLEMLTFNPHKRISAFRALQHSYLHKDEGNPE
CDK4/D1, sequence (P24385 whole entry partner): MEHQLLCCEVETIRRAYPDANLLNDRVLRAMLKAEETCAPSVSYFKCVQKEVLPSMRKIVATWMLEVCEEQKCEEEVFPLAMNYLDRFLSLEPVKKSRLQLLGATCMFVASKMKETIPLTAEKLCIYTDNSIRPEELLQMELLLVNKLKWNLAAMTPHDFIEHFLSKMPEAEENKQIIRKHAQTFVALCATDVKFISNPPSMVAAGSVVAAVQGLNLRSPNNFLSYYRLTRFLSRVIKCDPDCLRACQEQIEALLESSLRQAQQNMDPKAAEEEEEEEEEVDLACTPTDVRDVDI
CDK9/T1, sequence (P50750 whole entry): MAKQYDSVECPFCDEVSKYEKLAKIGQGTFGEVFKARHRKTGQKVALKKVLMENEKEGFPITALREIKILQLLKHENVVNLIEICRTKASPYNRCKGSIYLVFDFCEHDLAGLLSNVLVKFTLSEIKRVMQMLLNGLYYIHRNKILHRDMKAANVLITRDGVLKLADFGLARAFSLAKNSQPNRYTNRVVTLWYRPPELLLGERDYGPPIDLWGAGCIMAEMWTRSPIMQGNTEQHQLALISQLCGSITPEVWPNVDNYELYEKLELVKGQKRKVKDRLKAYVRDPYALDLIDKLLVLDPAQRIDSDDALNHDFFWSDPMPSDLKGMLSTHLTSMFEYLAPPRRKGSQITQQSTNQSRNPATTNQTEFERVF
CDK9/T1, sequence (O60563 whole entry partner): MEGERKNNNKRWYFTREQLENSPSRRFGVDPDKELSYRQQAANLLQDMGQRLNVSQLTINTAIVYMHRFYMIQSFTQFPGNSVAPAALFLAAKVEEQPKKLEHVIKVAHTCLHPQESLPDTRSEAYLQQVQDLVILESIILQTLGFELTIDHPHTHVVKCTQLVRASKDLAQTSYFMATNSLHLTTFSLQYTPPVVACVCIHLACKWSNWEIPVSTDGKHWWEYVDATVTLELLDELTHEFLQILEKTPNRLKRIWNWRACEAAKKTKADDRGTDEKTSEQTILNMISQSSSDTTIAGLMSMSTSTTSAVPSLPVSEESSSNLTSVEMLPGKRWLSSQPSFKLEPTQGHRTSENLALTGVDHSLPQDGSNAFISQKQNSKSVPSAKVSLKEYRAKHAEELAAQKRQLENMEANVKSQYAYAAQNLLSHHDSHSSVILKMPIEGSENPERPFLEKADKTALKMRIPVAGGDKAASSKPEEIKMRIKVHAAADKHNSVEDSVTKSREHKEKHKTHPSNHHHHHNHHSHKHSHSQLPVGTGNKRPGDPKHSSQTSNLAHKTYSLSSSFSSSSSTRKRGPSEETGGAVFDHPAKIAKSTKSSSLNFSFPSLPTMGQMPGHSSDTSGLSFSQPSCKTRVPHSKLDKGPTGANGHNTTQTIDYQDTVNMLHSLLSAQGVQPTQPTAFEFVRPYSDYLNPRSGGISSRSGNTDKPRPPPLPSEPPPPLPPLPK

Row | GI50 (leukemia cell lines) | Ki (CDK9/T1) | remaining activity at 10 µM (CDK4/D1) | Ki (CDKs and other kinases [1]) | remaining activity at 10 µM (CDKs and other kinases [2]) | remaining activity at 10 µM (CDKs and other kinases [3]) | remaining activity at 10 µM (CDKs and other kinases [1]) | Ki (CDKs and other kinases [3]) | Ki (CDKs and other kinases [2]) | Compound
1 | < 0.01 µM | 0.003 µM | 7% | 0.04 µM | 3% | 0% |  |  |  | Fc1cnc(N[C@H]2CC[C@H](N3CCCC3)CC2)nc1-c1cnc2ccc(-c3ccccc3)cn12 [Compound 137, 5-Fluoro-4-(6-phenylimidazo[1,2-a]pyridin-3-yl)-N-((1r,4r)-4-(pyrrolidin-1-yl)cyclohexyl)pyrimidin-2-amine]
2 | > 10 µM | 0.022 µM | 3% |  | 14% | 7% | 37% |  |  | Cc1cnc(N[C@H]2CC[C@H](N(CC(N)=O)CC(N)=O)CC2)nc1-c1cnc2ccc(Nc3cncnc3)cn12 [Compound 154, 2,2′-(((1r,4r)-4-((5-Methyl-4-(6-(pyrimidin-5-ylamino)imidazo[1,2-a]pyridin-3-yl)pyrimidin-2-yl)amino)cyclohexyl)azanediyl)diacetamide]
3 | 0.42 ± 0.02 µM | 0.149 µM | 21% | 0.372 µM | 45% | 11% |  |  |  | Cc1cnc(N[C@H]2CC[C@H](N)CC2)nc1-c1cnc2cc(C(F)(F)F)c(-c3ccccc3)cn12 [Compound 150, (1r,4r)-N1-(5-Methyl-4-(6-phenyl-7-(trifluoromethyl)imidazo[1,2-a]pyridin-3-yl)pyrimidin-2-yl)cyclohexane-1,4-diamine]
4 | 0.068 ± 0.006 µM | 0.31 µM | 38% |  | 45% |  | 34% | 0.706 µM |  | Cc1cnc(N[C@H]2CC[C@H](N)CC2)nc1-c1cnc2ccc(Nc3ccccn3)cn12 [Compound 128, (1r,4r)-N^1-(5-Methyl-4-(6-(pyridin-2-ylamino)imidazo [1,2-a]pyridin-3-yl)pyrimidin-2-yl)cyclohexane-1,4-diamine]
5 | 0.003 ± 0.001 µM | 0.108 µM | 4% | 0.088 µM | 3% | 4% |  |  |  | Fc1cnc(NC2CCNCC2)nc1-c1cnc2ccc(-c3ccccc3)cn12 [Compound 143, 5-Fluoro-4-(6-phenylimidazo[1,2-a]pyridin-3-yl)-N-(piperidin-4-yl)pyrimidin-2-amine]
6 | 0.62 ± 0.26 µM | 0.711 µM | 70% |  |  |  | 54% | 0.015 µM | 0.334 µM | CS(=O)(=O)N1CCC(Nc2ncc(F)c(-c3cnc4ccc(-c5ccccc5)cn34)n2)CC1 [Compound 147, 5-Fluoro-N-(1-(methylsulfonyl)piperidin-4-yl)-4-(6-phenylimidazo[1,2-a]pyridin-3-yl)pyrimidin-2-amine]
7 | 0.003 ± 0.001 µM | 0.027 µM | 21% |  | 10% | 7% | 12% |  |  | COc1cnc(N[C@H]2CC[C@H](N)CC2)nc1-c1cnc2ccc(-c3ccccc3)cn12 [Compound 89, (1r,4r)-N^1-(5-Methoxy-4-(6-phenylimidazo[1,2-a]pyridin-3-yl)pyrimidin-2-yl)cyclohexane-1,4-diamine]
8 | 0.132 ± 0.059 µM | 0.32 µM | 24% |  | 29% | 44% | 20% |  |  | CCN[C@H]1CC[C@H](Nc2ncc(C)c(-c3cnc4ccc(-c5ccccc5)cn34)n2)CC1 [Compound 131, (1r,4r)-N^1-Ethyl-N^4-(5-methyl-4-(6-phenylimidazo[1,2-a]pyridin-3-yl)pyrimidin-2-yl)cyclohexane-1,4-diamine]
9 | 0.064 ± 0.017 µM | 0.025 µM | 8% |  | 23% | 15% | 39% |  |  | Cc1cnc(N[C@H]2CC[C@H](N3CCCC3)CC2)nc1-c1cnc2ccc(Nc3cncnc3)cn12 [Compound 142, 3-(5-Methyl-2-(((1r,4r)-4-(pyrrolidin-1-yl)cyclohexyl)amino)pyrimidin-4-yl)-N-(pyrimidin-5-yl)imidazo [1,2-a]pyridin-6-amine]
10 | 0.005 ± 0.003 µM | 0.138 µM | 20% | 0.072 µM |  | 8% |  |  | 0.047 µM | CN1CCC(Nc2ncc(F)c(-c3cnc4ccc(-c5ccccc5)cn34)n2)CC1 [Compound 144, 5-Fluoro-N-(1-Methylpiperidin-4-yl)-4-(6-phenylimidazo [1,2-a]pyridin-3-yl)pyrimidin-2-amine]
11 | 2.4 ± 0.09 µM | 0.527 µM | 32% |  | 69% | 38% | 90% |  |  | COC(=O)[C@H]1CC[C@H](Nc2ncc(C)c(-c3cnc4ccc(Nc5cncnc5)cn34)n2)CC1 [Compound 157, Methyl (1r,4r)-4-((5-methyl-4-(6-(pyrimidin-5-ylamino)imidazo[1,2-a]pyridin-3-yl)pyrimidin-2-yl)amino) cyclohexane-1-carboxylate]
12 | 3.3 ± 0.31 µM | > 5 µM | 51% |  | 77% | 34% | 80% |  |  | Cc1cnc(NC2CCC(F)(F)CC2)nc1-c1cnc2ccccn12 [Compound 156, N-(4,4-Difluorocyclohexyl)-4-(imidazo[1,2-a]pyridin-3-yl)-5-methylpyrimidin-2-amine]
13 | > 5 µM | 0.111 µM | 14% |  | 2% |  | 94% | 0.089 µM |  | Cc1cnc(N[C@H]2CC[C@H](NS(C)(=O)=O)CC2)nc1-c1cnc2ccc(Nc3cncnc3)cn12 [Compound 126, N-((1r,4r)-4-((5-Methyl-4-(6-(pyrimidin-5-ylamino)imidazo[1,2-a]pyridin-3-yl)pyrimidin-2-yl)amino)cyclohexyl)methanesulfonamide]
14 | 0.172 ± 0.001 µM | 1.12 µM | 23% |  | 25% | 23% | 40% |  |  | COCCN[C@H]1CC[C@@H](Nc2ncc(C)c(-c3cnc4ccc(-c5ccccc5)cn34)n2)CC1 [Compound 130, (1s,4s)-N^1-(2-Methoxyethyl)-N^4-(5-methyl-4-(6-phenylimidazo[1,2-a]pyridin-3-yl)pyrimidin-2-yl) cyclohexane-1,4-diamine]
15 | 0.023 ± 0.007 µM | 0.261 µM | 70% |  | 27% | 46% | 18% |  |  | CN1CCC(Nc2ncc(F)c(-c3cnc4ccc(-c5ccc(S(=O)(=O)N(C)C)cc5)cn34)n2)CC1 [Compound 148, 4-(3-(5-Fluoro-2-((1-methylpiperidin-4-yl)amino)pyrimidin-4-yl)imidazo[1,2-a]pyridin-6-yl)-N,N-dimethylbenzenesulfonamide]
16 | > 5 µM | > 5 µM |  |  | 87% | 34% | 91% |  |  | Cc1cnc(N2CCC3(CCNC3=O)CC2)nc1-c1cnc2ccccn12 [Compound 124, 8-(4-(Imidazo[1,2-a]pyridin-3-yl)-5-methylpyrimidin-2-yl)-2,8-diazaspiro[4.5]decan-1-one]
17 |  | 0.045 µM | 32% |  | 34% | 0% | 39% |  |  | COc1ccc(Nc2ccc3ncc(-c4nc(N[C@H]5CC[C@H](N)CC5)ncc4C)n3c2)cn1 [Compound 127, (1r,4r)-N^1-(4-(6-((6-Methoxypyridin-3-yl)amino)imidazo [1,2-a]pyridin-3-yl)-5-methylpyrimidin-2-yl)cyclohexane-1,4-diamine]
